Experimental data from patent US9000028B2, “Indole and indazole compounds as an inhibitor of cellular necrosis” (LG Life Sciences Ltd., priority 2007, dated 2015).

How the values were obtained:
[1] = tested on: primary hepatocytes isolated from rats; assay: Hepatocyte protective effect against substances deriving hepatocyte toxicity (WST-1 viability); format: cell-based; settings: Rattus norvegicus, Hepatocyte, doxorubicin, 24-48 h, read-out: EC50, cell protective effects against doxorubicin in hepatocytes
Summary of the method: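 Hepatocytes from two-step collagenase perfusion (≥90% viable) seeded on collagen, pretreated 30 min with compound (5-step 2- or 3-fold dilutions from 30, 10 or 1 uM; 0.2% DMSO), then exposed to hepatotoxic agents. WST-1 absorbance at 440 nm after 24-48 h; EC50 = concentration giving 50% of maximal protection.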

brain cells (SK-N-MC) = assay: Protective effect when tBHP was treated on brain cells (LDH assay); format: cell-based; settings: Homo sapiens, tBHP 400 uM, 6 h
Description: In order to assess the protective effect on brain cells, 2×10^4 brain cells were distributed into the 96-well plate using DMEM media (Gibco, 10% FBS), and incubated for 24 h. The Example compounds were serially diluted by 3-fold to the final concentration of 30, 10, 3, 1, 0.3, 0.1 uM, by which each well was treated for 1 h. Cells were treated with tBHP at the final concentration of 400 uM, and incubated for 6 h. 50 uL of media was taken from each well to proceed with LDH assay (Promega). In LDH assay, 50 uL of media was mixed with 50 uL of assay solution. After the reaction for 30 min at room temperature, absorbance was measured at 490 nm using SpectraMax (Molecular Device).

[2] = tested on: pancreatic cells (Linm5F); assay: Protective effect when tBHP was treated on pancreatic cells (SRB method); format: cell-based; settings: tBHP 400 uM, 5 h
Description: (§1) In order to determine the protective effect on pancreatic cells, Linm5F cells, a sort of the beta cells, were distributed into the 96-well plate in the amount of 2×10^4 cells/well, and incubated for 24 h. The Example compounds were serially diluted by 3-fold to the final concentration of 30, 10, 3, 1, 0.3, 0.1 uM, by which each well was treated for 1 h. Cells were treated with tBHP at the final concentration of 400 uM, and further incubated for 5 h. Protective effects were determined using SRB (Sulforhodamine B Protein) method in which total amount of cellular protein is stained. Briefly, cells were incubated for 5 h, 50 uL of 4% formaldehyde solution was added to each well to fix the cells, and stored for about 30 min at room temperature. After discarding the media, each well was washed with distilled water 2-3 times, and the plate was dried in an oven at 50° C. 50 uL of SRB solution was added to each well, and placed for about 30 min at room temperature. After removing SRB solution, the plate was washed with 1% acetic acid solution 2-3 times. After drying the plate in an oven at 50° C., 100 uL of 10 mM Tris was added to elute SRB which was staining the intracellular protein.

kidney cells (LLC-PK1) = assay: Protective effect when tBHP was treated on kidney cells (SRB method); format: cell-based; settings: Sus scrofa, tBHP 400 uM, 6 h
Description: as §1, with “After drying the plate in an oven at 50° C., 100 uL of 10 mM Tris was added to elute SRB which was staining the intracellular protein.” left out
In order to determine the protective effect on kidney cells, 4×10^4 cells were distributed into each well, and incubated for 24 h. […] Protective effect of each compound was determined using the same SRB method as in Linm5F of above mentioned 2).

chondrocytes = assay: Protective effect when tBHP was treated on chondrocytes (SRB method); format: cell-based, SD rats; settings: Chondrocyte; tBHP 500 uM, 3 h; rat chondrocytes
Description: as §1, with “After drying the plate in an oven at 50° C., 100 uL of 10 mM Tris was added to elute SRB which was staining the intracellular protein.” left out
In order to determine the protective effect on chondrocytes, chondrocytes were isolated from 2 hind legs of 16 week-old SD rats (body weight: 450-460 g). […] Protective effect of each compound was determined using the same SRB staining method as in Linm5F of above mentioned 2).

[3] = tested on: cardiac cells (H9C2, white rat cardiomyocyte); assay: Protective effect when tBHP was treated on cardiac cells (SRB method); format: cell-based; settings: tBHP 400 uM, 2 h
Description: as §1
In order to assess the protective effect on cardiac cells, H9C2 cells were distributed in the amount of 1.5×10^4 cells/well, and incubated for 24 h. The Example compounds were serially diluted by 3-fold to the final concentration of 30, 10, 3, 1, 0.3, 0.1 uM, by which each well was treated for 45 min. Cells were treated with tBHP at the final concentration of 400 uM, and incubated for 2 h. Protective effect of each compound was determined using the same SRB method as in Linm5F of above mentioned 2).

Row | EC50 (brain cells (SK-N-MC)) | SMILES | EC50 [1] | EC50 [2] | EC50 (kidney cells (LLC-PK1)) | EC50 (chondrocytes) | EC50 [3]
1 | ≤ 100 nM | O=C1CN(Cc2cc(NC3CCOCC3)c3[nH]c(-c4ccccc4)cc3c2)CCN1 [Example 37, (Tetrahydropyran-4-yl)-[2-phenyl-5-(2-oxo-piperazin-4-yl)methyl-1H-indol-7-yl]amine] | 150 nM |  |  |  | 
2 | ≤ 100 nM | Cc1cc(N(C)C2CCOCC2)c2[nH]c(-c3ccccc3)cc2c1 [Example 55, (Tetrahydropyran-4-yl)-(5-methyl-2-phenyl-1H-indol-7-yl)-methyl-amine] | 300 nM |  |  |  | 
3 |  | O=S1(=O)CCN(Cc2cc(NCC3CCOCC3)c3[nH]c(-c4ccccc4)cc3c2)CC1 [Example 56, (Tetrahydropyran-4-ylmethyl)-[2-phenyl-5-(1,1-dioxo-thiomorpholin-4-yl)methyl-1H-indol-7-yl]amine] | 130 nM | ≤ 100 nM | 660 nM | ≤ 100 nM | 
4 | ≤ 100 nM | O=C1CN(Cc2cc(NCC3CCOCC3)c3[nH]c(-c4ccccc4)cc3c2)CCN1 [Example 63, (Tetrahydropyran-4-ylmethyl)-[2-phenyl-5-(2-oxo-piperazin-4-yl)methyl-1H-indol-7-yl]amine] | 170 nM |  |  | ≤ 100 nM | 
5 |  | O=S1(=O)CCN(Cc2cc(NCC3CCOCC3)c3[nH]c(-c4ccccc4)c(Br)c3c2)CC1 [Example 74, (Tetrahydropyran-4-ylmethyl)-(3-bromo-5-(1,1-dioxo-thiomorpholin-4-yl)methyl-2-phenyl-1H-indol-7-yl)-amine] | 350 nM |  |  |  | ≤ 200 nM
6 |  | CC(=O)Nc1ccc(-c2cc3cc(N4CCS(=O)(=O)CC4)cc(N(C4CCCC4)C4CCCC4)c3[nH]2)cc1 [Example 86, Dicyclopentyl-{5-(1,1-dioxo-thiomorpholin-4-yl)-2-[4-(acetyl)aminophenyl]-1H-indol-7-yl}-amine] | 1440 nM |  |  |  | 500 nM
7 |  | CS(=O)(=O)N1CCC(Nc2cc(CN3CCS(=O)(=O)CC3)cc3cc(-c4ccccc4)[nH]c23)CC1 [Example 97, (5-(1,1-Dioxo-thiomorpholin-4-yl)methyl-2-phenyl-1H-indol-7-yl)-(1-methanesulfonyl-piperidin-4-yl)-amine] | 90 nM |  |  |  | ≤ 200 nM
8 |  | COC(=O)CNc1cc(F)cc2cc(-c3ccccc3)[nH]c12 [Example 106, 2-(5-Fluoro-2-phenyl-1H-indol-7-yl)amino-acetic acid methyl ester] | 450 nM | ≤ 100 nM |  |  | 
9 |  | O=C(O)CNc1cc(F)cc2cc(-c3ccccc3)[nH]c12 [Example 107, 2-(5-Fluoro-2-phenyl-1H-indol-7-yl)amino-acetic acid] | 350 nM | ≤ 100 nM |  |  | 
10 | 260 nM | Cc1ccc(Nc2cc(Cl)cc3c(-c4ccccc4)c[nH]c23)nc1 [Example 115, (5-Chloro-3-phenyl-1H-indol-7-yl)-(5-methyl-pyridin-2-yl)-amine] | > 2000 nM |  |  |  | 
11 |  | O=C(O)[C@@H]1CCCN1C(=O)c1cc(NC2CCCC2)c2[nH]c(-c3ccccc3)cc2c1 [Example 117, (2S)-1-(7-cyclopentylamino-2-phenyl-1H-indole-5-carbonyl)-pyrrolidine-2-carboxylic acid] | 260 nM |  |  |  | ≤ 200 nM
